The source of these data is patent US20090305955A1, “Cyclopeptide with Anti-Cancer Activity Derived from Collagen Type IV” (priority 2006, published 2009).

Common to all, as to assay type: cell-based, human
One test deals with UACC-903 melanoma cells. The experiment in a line: In vitro invasion/migration test (modified Boyden chambers, Matrigel). The following applies: 20 μM; 48 hours; Matrigel membranes, 10% FCS chemoattractive agent. The method, then: FIG. 10: In vitro migration test for UACC-903 human melanoma cells in the presence of the cyclopeptide YSNSG (SEQ ID NO: 3). The UACC-903 cells were incubated with a control medium (control, negative, white bar), a linear heptapeptide CNYYSNS (SEQ ID NO: 5) (positive control, black bar) or with the cyclopeptide YSNSG (SEQ ID NO: 3) at 20 μM (grey bar). After an incubation period of 48 hours, the migrated cells were stained with crystal violet and counted under reverse microscopy.
Cell invasion was tested in modified Boyden chambers (ThinCert®, a cell culture insert for 24-well plates, internal diameter 8.36 mm, 8 μm pore, Greiner Bio-one, Courtaboeuf, France). Briefly, 5×10^4 cells were suspended in DMEM medium without FCS and containing 0.2% BSA and seeded onto membranes spread with Matrigel (30 μg/cm^2). DMEM medium supplemented with 10% FCS and 2% BSA were used as the chemo-attracting agent. […] The cells remaining on the upper surface of the membranes were eliminated by scraping and those on the lower surface were counted using a reverse microscope (Pasco et al, 2000(a)). The counted cells corresponded to the cells which had crossed the Matrigel mat then the porous membrane of the Boyden chamber; they thus reflected the migration and invasion capacities of the tumour cells through an extracellular matrix or a basal membrane, reproduced in this case by the Matrigel.

The subject of the next test is phospho-FAK. The experiment in a line: Phospho-FAK immunolabelling, HUVEC cells. The following applies: 20 μM, 48 h. The method, then: FIG. 22: Effect of YSNSG (SEQ ID NO: 3) cyclopeptide on the organization of the cytoskeleton of HUVEC cells. The cells were cultivated on glass slides in the absence (control) or in the presence of 20 μM of YSNSG (SEQ ID NO: 3) cyclopeptide. After 48 h of incubation, the cells were fixed, permeabilized, incubated with phalloidin (A) or with an anti-Phospho-FAK antibody (B) then with Hoechst-33342. The slides were observed under a confocal microscope;
The cells were seeded onto sterile glass slides placed in 24-well plates (2×10^4 cells/well) in a suitable medium containing 5% serum in the presence or absence of YSNSG (SEQ ID NO: 3) cyclopeptide. After 24 and 48 hours incubation, the cells were fixed for 15 minutes in methanol. Three washes of 5 minutes in TBS-T were carried out, then the cells were incubated for 30 minutes at ambient temperature in a saturation solution (TBS-T containing 3% BSA). The cells were then incubated for 2 hours at ambient temperature in the presence of primary antibody diluted to 1/100 in TBS-T containing 3% BSA.

The test system of another test is MMP-9. The experiment in a line: Zymography in the presence of gelatine, conditioned medium of UACC-903 cells. The following applies: cyclopeptide 5 to 20 μM, linear heptapeptide 20 μM. The method, then: (§1) FIG. 11: Effect of YSNSG (SEQ ID NO: 3) cyclopeptide on secretion of MMP-2 and MMP-9. The secretion of MMP-2 and MMP-9 was analyzed by zymography in the presence of gelatine (A), on a medium conditioned by UACC-903 cells in the absence of peptide (negative control, white bar), on cells treated with linear heptapeptide CNYYSNS (SEQ ID NO: 5) (20 μM) (positive control, black bar) or cells treated with concentrations of 5 μM to 20 μM of cyclopeptide (grey bars) YSNSG (SEQ ID NO: 3). The conditioned medium was collected and analyzed as described in the method. Quantification was carried out using Bio 1D software. B: quantification of proMMP2; C: quantification of proMMP-9 (A.U.: arbitrary unit);
(§2) The expression of MMP-2 and MMP-9 in a conditioned medium of UACC-903 cells, treated or not treated with synthetic peptides, was analyzed by zymography in the presence of gelatine as described above (Pasco et al, 2000(a)). The secretion of TIMP-2 was analyzed in a conditioned medium of UACC-903 cells by reverse zymography in the presence of gelatine, as described above (Pascal et al, 2000(a)).

Another test relates to MMP-2. The description is as above. To be noted: cyclopeptide 5 to 20 μM, linear heptapeptide 20 μM. The method, then:
as §1, §2

Another test deals with MMP-14. The experiment in a line: Western blot of proMMP-14 / MMP-14, UACC-903 cells. To be noted: 20 μM. The method, then: FIG. 12: Effect of YSNSG (SEQ ID NO: 3) cyclopeptide on expression and activation of MMP-14. Expression of proMMP-14 (white bar) and MMP-14 (black bar) was studied by Western Blot (A) in a medium conditioned by UACC-903 cells in the absence of peptide (control), on cells treated with the linear heptapeptide CNYYSNS (SEQ ID NO: 5) (20 μm) or treated with the cyclopeptide YSNSG (SEQ ID NO: 3) at a concentration of 20 μM (cyclopeptide YSNSG (SEQ ID NO: 3)). The conditioned medium was recovered and analyzed as described in the methods. Quantification was carried out using Bio 1D software. (B);
The samples underwent 10% polyacrylamide gel electrophoresis in the presence of 0.1% SDS then were transferred onto Immobilon-P membranes (Millipore, St Quentin en Yvelines, France). The membranes were saturated with 5% freeze dried skimmed milk, Tween 20 0.1% in a 50 mM Tris-HCl, 150 mM NaCl buffer, pH 7.5 (TBS) for 2 hours at ambient temperature. The membranes were then incubated overnight at 4° C. with anti-MMP-14, anti-PAI-1 and anti-u-PAR antibodies then incubated for one hour at ambient temperature with a secondary antibody (anti-IgG) conjugated with peroxidase. The immune complexes were visualized with an ECL chemoluminescence detection kit.

A further test concerns u-PA. The experiment in a line: Zymography in the presence of gelatine and plasminogen, HUVEC conditioned medium. The following applies: 20 μM. The method, then:
FIG. 20: Effect of YSNSG (SEQ ID NO: 3) cyclopeptide on the secretion of plasminogen activators. The secretion of u-PA and t-PA was analyzed by zymography in the presence of gelatine and plasminogen (A) in a medium conditioned by HUVEC cells in the absence (control) or in the presence of 20 μM of cyclopeptide YSNSG (SEQ ID NO: 3). Quantification was carried out using Bio 1D software (B);
To determine the plasminogen activities, conditioned media of UACC-903 cells were analyzed by polyacrylamide gel electrophoresis in the presence of SDS and containing 1 mg/ml of gelatine and 10 μg/ml of plasminogen. After electrophoresis, the gels were incubated overnight at ambient temperature in a 100 mM glycine, 5 mM EDTA, pH 8.0 buffer.

Where a SMILES comes first, the peptide text is derived from it.

`NC(=O)CC1NC(=O)C(CO)NC(=O)C(Cc2ccc(O)cc2)NC(=O)CNC(=O)C(CO)NC1=O` (stereo not drawn) [cyclopeptide YSNSG, cyclopeptide YSNSG (SEQ ID NO: 3)] (cyclo(GYSNS); configuration not given here): the “reduction in the migration of UACC-903 cells” value in the test on UACC-903 melanoma cells was −47%. Moreover, in the test on phospho-FAK, the “expression of the phosphorylated form of focal adhesion kinase (phospho-FAK)” value is “reduction”. Besides, in the test with MMP-9, the “secretion of MMP-9” value was “No significant change”. Moreover, the “secretion of MMP-2” value in the test on MMP-2 is “No significant change”. In the test on MMP-14, the “activation of proMMP-14” value is reported as “completely abolished” and the “expression of proMMP-14” value is recorded as “strongly inhibited”. The “reduction in the production of u-PA” value in the test with u-PA is reported as −27%.
For the molecule “CNYYSNS (Synthetic linear heptapeptide) [linear peptide NC1 [α3(IV) 185-191], the 7 N-terminal amino acids of the 185-203 domain; positive control, reference compound]”, the “reduction in the migration of UACC-903 cells” value with UACC-903 melanoma cells was “similar”. In addition, in the test with MMP-9, the “secretion of MMP-9” value is “No significant change”. Moreover, in the test with MMP-2, the “secretion of MMP-2” value is recorded as “No significant change”. In addition, in the test on MMP-14, the “activation of proMMP-14” value is given as “same intensity” and the “expression of proMMP-14” value is recorded as “same intensity”.
